Measured values reported in ChEMBL document CHEMBL1201862, “PubChem BioAssay data set” (2004).
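Compound exposure: 48 hours, 5 concentrations, 96-well plates. At the GI50, growth is halved.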 Activity calls are given as the source filed them. Cut-off read from the data, not from the text of the source: active = GI50 up to about 1.1 µM and inactive = higher.

Key:
Assay in all cases: DTP human tumour cell line panel, 48 h
[1] = test system: HCT-116
[2] = test system: OVCAR-8
[3] = test system: SNB-19
[4] = test system: NCI/ADR-RES
[5] = test system: RXF 393
[6] = test system: PC-3
[7] = test system: UACC-62
[8] = test system: SK-MEL-2
[9] = test system: SK-MEL-28
[10] = test system: TK-10
[11] = test system: COLO 205
[12] = test system: MDA-N
[13] = test system: IGROV-1
[14] = test system: MOLT-4
[15] = test system: CCRF-CEM
[16] = test system: LOX IMVI
[17] = test system: MDA-MB-435
[18] = test system: BT-549
[19] = test system: MCF7
[20] = test system: ACHN

c1ccc(CSCCc2ccncc2)cc1
GI50 [1]: > 100 µM (inactive) | GI50 [2]: > 100 µM (inactive) | GI50 [3]: > 100 µM (inactive) | GI50 [4]: > 100 µM (inactive) | GI50 [5]: > 100 µM (inactive) | GI50 [6]: > 100 µM (inactive) | GI50 [7]: > 100 µM (inactive) | GI50 [8]: 41.5 µM (inactive) | GI50 [9]: > 100 µM (inactive) | GI50 [10]: > 100 µM (inactive) | GI50 [11]: > 100 µM (inactive) | GI50 [12]: > 100 µM (inactive) | GI50 [13]: > 100 µM (inactive) | GI50 [14]: > 100 µM (inactive) | GI50 [15]: > 100 µM (inactive) | GI50 [16]: > 100 µM (inactive) | GI50 [17]: > 100 µM (inactive) | GI50 [18]: > 100 µM (inactive) | GI50 [19]: > 100 µM (inactive) | GI50 [20]: > 100 µM (inactive)

COc1cc(C2c3cc4c(cc3OC(N3CCOCC3)C2C)OCO4)ccc1O (stereo not given)
GI50 [1]: 8.34 µM (inactive) | GI50 [2]: 26.9 µM (inactive) | GI50 [3]: 24.4 µM (inactive) | GI50 [4]: 5.96 µM (inactive) | GI50 [5]: 11.5 µM (inactive) | GI50 [6]: 7.28 µM (inactive) | GI50 [7]: 8.05 µM (inactive) | GI50 [8]: 6.24 µM (inactive) | GI50 [9]: 34.1 µM (inactive) | GI50 [10]: 36.5 µM (inactive) | GI50 [11]: 25.3 µM (inactive) | GI50 [12]: 1.76 µM (inactive) | GI50 [13]: 16.4 µM (inactive) | GI50 [14]: 6.25 µM (inactive) | GI50 [15]: 8.67 µM (inactive) | GI50 [16]: 11.8 µM (inactive) | GI50 [17]: 2.81 µM (inactive) | GI50 [18]: 10.3 µM (inactive) | GI50 [19]: 5.98 µM (inactive) | GI50 [20]: 21.2 µM (inactive)

Cc1cn(C2CCC(CO)(CF)O2)c(=O)[nH]c1=O (stereo not given)
GI50 [1]: > 100 µM (inactive) | GI50 [2]: > 100 µM (inactive) | GI50 [3]: > 100 µM (inactive) | GI50 [4]: > 100 µM (inactive) | GI50 [5]: > 100 µM (inactive) | GI50 [6]: > 100 µM (inactive) | GI50 [7]: > 100 µM (inactive) | GI50 [8]: > 100 µM (inactive) | GI50 [9]: > 100 µM (inactive) | GI50 [10]: > 100 µM (inactive) | GI50 [11]: > 100 µM (inactive) | GI50 [12]: > 100 µM (inactive) | GI50 [13]: > 100 µM (inactive) | GI50 [14]: > 100 µM (inactive) | GI50 [15]: > 100 µM (inactive) | GI50 [16]: > 100 µM (inactive) | GI50 [17]: > 100 µM (inactive) | GI50 [18]: > 100 µM (inactive) | GI50 [19]: > 100 µM (inactive) | GI50 [20]: > 100 µM (inactive)

CC(=O)c1cccc(NC(=O)C(=O)C(c2cnc3ccc([N+](=O)[O-])cc3n2)[N+](=O)[O-])c1 (stereo not given)
GI50 [1]: 58.3 µM (inactive) | GI50 [2]: > 100 µM (inactive) | GI50 [3]: > 100 µM (inactive) | GI50 [4]: 95.5 µM (inactive) | GI50 [5]: 96.6 µM (inactive) | GI50 [6]: 42.9 µM (inactive) | GI50 [7]: > 100 µM (inactive) | GI50 [8]: > 100 µM (inactive) | GI50 [9]: > 100 µM (inactive) | GI50 [10]: > 100 µM (inactive) | GI50 [11]: 41 µM (inactive) | GI50 [12]: > 100 µM (inactive) | GI50 [13]: > 100 µM (inactive) | GI50 [14]: 36.7 µM (inactive) | GI50 [15]: 36.4 µM (inactive) | GI50 [16]: > 100 µM (inactive) | GI50 [17]: > 100 µM (inactive) | GI50 [18]: 53 µM (inactive) | GI50 [19]: > 100 µM (inactive) | GI50 [20]: > 100 µM (inactive)

Nc1nc(O)c2[nH]nnc2n1 [8-AZAGUANINE]
GI50 [1]: 0.881 µM (active) | GI50 [2]: 0.551 µM (active) | GI50 [3]: 42.7 µM (inactive) | GI50 [4]: 1.93 µM (inactive) | GI50 [5]: 0.143 µM (active) | GI50 [6]: 0.855 µM (active) | GI50 [7]: 0.372 µM (active) | GI50 [8]: 0.074 µM (active) | GI50 [9]: 0.728 µM (active) | GI50 [10]: 0.408 µM (active) | GI50 [11]: 13.3 µM (inactive) | GI50 [12]: 0.308 µM (active) | GI50 [13]: 63.8 µM (inactive) | GI50 [14]: 0.272 µM (active) | GI50 [15]: 0.242 µM (active) | GI50 [16]: 0.223 µM (active) | GI50 [17]: 0.265 µM (active) | GI50 [18]: 0.473 µM (active) | GI50 [19]: 40.8 µM (inactive) | GI50 [20]: 16.3 µM (inactive)

O[C@H]1[C@H]2c3cc4c(cc3CN3CCC(=C[C@@H]1O)[C@H]23)OCO4 [LYCORINE]
GI50 [1]: 1.26 µM (inactive) | GI50 [2]: 1.53 µM (inactive) | GI50 [3]: 2.11 µM (inactive) | GI50 [4]: 2.31 µM (inactive) | GI50 [5]: 0.3 µM (active) | GI50 [6]: 1.45 µM (inactive) | GI50 [7]: 2.08 µM (inactive) | GI50 [8]: 0.376 µM (active) | GI50 [9]: 2.7 µM (inactive) | GI50 [10]: 2.67 µM (inactive) | GI50 [11]: 1.25 µM (inactive) | GI50 [12]: 2.59 µM (inactive) | GI50 [13]: 0.332 µM (active) | GI50 [14]: 1.29 µM (inactive) | GI50 [15]: 1.82 µM (inactive) | GI50 [16]: 0.971 µM (active) | GI50 [17]: 2.07 µM (inactive) | GI50 [18]: 1.66 µM (inactive) | GI50 [19]: 0.201 µM (active) | GI50 [20]: 0.849 µM (active)
